Data on three molecules can be found in US8501734B2, “Medical intervention in haematological cancers” (Oncotyrol-Center for Personalized Cancer Medicine GmbH …, priority 2008, dated 2013).

The test system of one experiment is U266 cells. As to the kind of experiment: Annexin V/PI apoptosis assay (FACS), U266 cells. Note: key: 0 for no; + for low; ++: + indicates the range of apoptosis induction; +++: + indicates the range of apoptosis induction; ++++ for very strong apoptosis induction. Type of experiment: cell-based. On the set-up: apoptosis induction: unit not given here. Here is the method:
(§1) After treatment adherent cells were trypsinized (as described before), and resuspended in corresponding full medium. Suspension cells or trypsinized adherent cells, supernatant and washing solution (1×PBS from washing before trypsinization) were pooled and then spun down (300 g for 3 min) washed in 2 ml and resuspended in 1000 of annexin V binding buffer and mixed with 2 μg/ml annexin V-Allophycocyanin (APC) (BD-Pharmingen, San Diego, Calif., USA) and 50 ng/ml of propidium iodide (PI; Sigma Aldrich). At least 10.000 cells were measured per sample using a Becton Dickinson FACSCalibur flow Cytometer (San Jose, Calif., USA). Percentage of Annexin V negative and PI negative cells were depicted in the figures. For the analysis of the pro-apoptotic activity of Imiquimod® in primary MM cells and non-malignant BMMCs, 5×10^5 cells BMMCs cells were treated with or without 40 μg/ml Imiquimod® for the indicated time periods. Cells were then harvested and washed twice with PBS. Detection of apoptotic cells was performed using the annexin V/PI assay according to manufacturers' instruction. Briefly, BMMCs were stained with a mixture of annexin V/FITC (Alexis Coorp., Laeufelfingen, Switzerland), propidium iodide (Sigma), anti-CD38-PE and anti-CD45-PC5 for 15 min at room temperature and immediately analyzed by flow cytometry. The percentages of viable cells (i.e. cells negative for annexin V/FITC and PI) within the MM (CD38^posCD45^low/absent) and non-MM fraction (CD38^neg/CD45^pos) were determined by flow cytometry.
(§2) Adherent cells were grown in 24-well plates to confluence and treated with 40 μg/ml Imiquimod® for 24 h. Cells were then trypsinized, suspended in full medium, stained for AnnexinV/PI and apoptosis was measured as described before. Suspension cells (250.000) were treated with 40 μg/ml Imiquimod® for 24 h, stained for Annexin/PI and apoptosis was measured as described above (Annexin V/Propidium Iodide apoptosis Assay).
(§3) OPM-2 and U266 cells (2.5×10^5 in 500 μl) were treated with either Imiquimod® alone (10 μg/500 μl), various inhibitors/drugs alone or with the combination of Imiquimod® and inhibitors for 24 or 48 h. In the controls the solvent of the drug has been added in appropriate amounts. Cells were then AnnexinV/PI stained and apoptosis measured as described before.

The test system of a further experiment is OPM2 cells. As to the kind of experiment: Annexin V/PI apoptosis assay (FACS), OPM2 cells. Type of experiment: cell-based. More on the design: apoptosis induction: unit not given here. The settings on record: OPM2 cells. Here is the method:
as §1
Cells were cultured as described before and, treated with 40 μg/ml Imiquimod® or Gardiquimod® for 24 h, and apoptosis was assayed by AnnexinV/PI staining and FACS analysis.
as §2, §3

Setting [1] is: 24 h, Imi 20 μg/ml + drug 10 nM.
[2] abbreviates: 24 h, Imi 20 μg/ml + drug 100 nM.
The mark [3] stands for this setting: 48 h, Imi 20 μg/ml + drug 10 nM.
[4] abbreviates: 48 h, Imi 20 μg/ml + drug 100 nM.

Turning to `C[C@@H]1C[C@H]2[C@@H]3CCC4=CC(=O)C=C[C@]4(C)[C@@]3(F)[C@@H](O)C[C@]2(C)[C@@]1(O)C(=O)CO` [Dex., Dexamethasone], the apoptosis induction entry with U266 cells (setting [1]) is recorded as “+”; in the experiment with U266 cells (setting [2]), “+”; in the experiment on U266 cells (24 h, Imi 20 μg/ml + drug 1 μM), “+”; in the experiment on U266 cells (24 h, drug alone 10 nM), 0; with U266 cells (24 h, drug alone 100 nM), 0; in the experiment on U266 cells (24 h, drug alone 1 μM), 0. Further, the apoptosis induction entry with U266 cells (setting [3]) is reported as “+”; with U266 cells (setting [4]), “+”; in the experiment with U266 cells (48 h, Imi 20 μg/ml + drug 1 μM), “+”; in the experiment with U266 cells (48 h, drug alone 10 nM) it was 0; in the experiment on U266 cells (48 h, drug alone 100 nM) it was 0; in the experiment with U266 cells (48 h, drug alone 1 μM), 0. The apoptosis induction entry is reported as “+” in the experiment with OPM2 cells (setting [1]); “+” in the experiment with OPM2 cells (setting [2]); “+” in the experiment on OPM2 cells (24 h, Imi 20 μg/ml + drug 1 μM); 0 in the experiment on OPM2 cells (24 h, drug alone 10 nM); 0 in the experiment on OPM2 cells (24 h, drug alone 100 nM); 0 with OPM2 cells (24 h, drug alone 1 μM). Further, the apoptosis induction result in the experiment on OPM2 cells (setting [3]) is reported as “++”; in the experiment with OPM2 cells (setting [4]), “+++”; in the experiment with OPM2 cells (48 h, Imi 20 μg/ml + drug 1 μM), “+++”; in the experiment with OPM2 cells (48 h, drug alone 10 nM), 0; with OPM2 cells (48 h, drug alone 100 nM) it was 0; in the experiment on OPM2 cells (48 h, drug alone 1 μM), 0.

As for `CCNCc1nc2c(N)nc3ccccc3c2n1CC(C)(C)O` [Gardiquimod, 1-(4-Amino-2-ethylaminomethylimidazo[4,5-c]quinolin-1-yl)-2-methylpropan-2-ol], in the experiment with OPM2 cells (40 μg/ml, 24 h), the “apoptosis induction compared with Imiquimod” value is “comparable, though slightly lower extend”.

Consider `Cn1c2ccccc2c2c3c(c4c5ccccc5n(CCC#N)c4c21)CNC3=O` [Gö 6976], for which the apoptosis induction entry with U266 cells (setting [2]) is recorded as “+”; with U266 cells (24 h, Imi 20 μg/ml + drug 1 μM), “++”; in the experiment on U266 cells (24 h, Imi 20 μg/ml + drug 5 μM), “++”; in the experiment with U266 cells (24 h, drug alone 100 nM), 0; in the experiment on U266 cells (24 h, drug alone 1 μM), 0; in the experiment with U266 cells (24 h, drug alone 5 μM), 0. The apoptosis induction result with U266 cells (setting [4]) is given as “++”; with U266 cells (48 h, Imi 20 μg/ml + drug 1 μM), “+++”; in the experiment with U266 cells (48 h, Imi 20 μg/ml + drug 5 μM), “+++”; with U266 cells (48 h, drug alone 100 nM), 0; in the experiment on U266 cells (48 h, drug alone 1 μM) it was 0; in the experiment on U266 cells (48 h, drug alone 5 μM), “+”. The apoptosis induction result in the experiment on OPM2 cells (setting [2]) is listed as “+”; in the experiment on OPM2 cells (24 h, Imi 20 μg/ml + drug 1 μM) it was “++”; in the experiment with OPM2 cells (24 h, Imi 20 μg/ml + drug 5 μM), “++”; in the experiment on OPM2 cells (24 h, drug alone 100 nM), 0; in the experiment with OPM2 cells (24 h, drug alone 1 μM) it was 0; in the experiment with OPM2 cells (24 h, drug alone 5 μM), 0. Moreover, the apoptosis induction entry with OPM2 cells (setting [4]) was “++”; in the experiment with OPM2 cells (48 h, Imi 20 μg/ml + drug 1 μM), “+++”; in the experiment on OPM2 cells (48 h, Imi 20 μg/ml + drug 5 μM) it was “+++”; in the experiment on OPM2 cells (48 h, drug alone 100 nM) it was 0; in the experiment with OPM2 cells (48 h, drug alone 1 μM) it was 0; with OPM2 cells (48 h, drug alone 5 μM) it was “+”.
